According to patent publication US20230032623A1, “Tumor-on-a-chip” (NEW YORK UNIVERSITY, priority 2021, published 2023):
Entries after “also recorded” stand apart in the source; their conditions may differ.

Tests used:
Assay type in all cases: cell-based, human
[1] = system: tumor-associated macrophages (TAMs); assay: CD163 (M2-like marker) expression on TAM in GBM-on-a-Chip, immunostaining and qPCR
Protocol: U937 monocytes were polarized into macrophages with treatments of 5 nM PMA (Sigma-Aldrich) for 24 hr (Shi Y et al., Nature communications. 2017 Jun. 1; 8(1):1-7). Biomimetic TAMs (CD68+CD163+) were obtained by culturing U937-derived macrophages in complete culture media supplemented with supernatants of patient-derived GBM cells (5×10^5 cells/mL) which were collected after 3 days' culture and centrifuged at 2000×g for 10 min at 4° C. to remove cell debris. Cryopreserved human PBMCs (10HU-003, iXCells Biotechnologies) were thawed and cultured in RPMI-1640 medium (Gibco) supplemented with 10% FBS (Gibco) and 1% penicillin/streptomycin (Gibco) overnight before sorting for CD8+ T-cells. Allogeneic CD8+ T-cells were isolated from PBMCs via negative selection using MojoSort Human CD8 T-Cell Isolation Kit (MojoSort, 480011, Biolegend) as per the manufacturer's protocol (FIG. 7A through FIG. 7D). […]
To characterize the expression of surface marks on GBM cell, CD8+ T-cell and TAM, cells were firstly recovered with Corning Cell Recovery Solution (Corning, N.Y., USA) from the brain tissue-mimicking hydrogel. […] To quantify PD-1 expression on CD8+ T-cell, cells were first incubated with PD-1 primary antibody (367402, Biolegend) for 1 hr, and then visualized with Alexa Fluor 488 conjugated goat anti-mouse IgG secondary antibodies (Invitrogen, 5 μg/mL). […]

[2] = system: PD-L1; assay: qPCR analysis of PD-L1 expression in TAM and GBM cell
Protocol: Control groups were treated with fresh cell culture media supplemented with DMSO (0.01%) and human IgG4 isotype control antibody (1 μg/mL, BioLegend). Fresh cell culture media supplemented anti-PD-1 and anti-CSF-1R antibodies was loaded in the microfluidic channels 2 hr after loading allogeneic CD8+ T-cells. Blocking media was freshly prepared and replenished every 24 hr for 3 days.
RNA was extracted using RNeasy Plus Mini Kit (Qiagen, US), and cDNA was synthesized from the mRNA using SuperScript IV VILO Master Mix for RT-RCR (Invitrogen, US), followed by real-time PCR using a SYBR Green PCR Master Mix (Thermo Fisher Scientific, US) and QuantStudio six sequence detection system (Applied Biosystems, Thermo Fisher Scientific). The reactions were performed with the following cycling conditions: 95° C. for 10 min followed by 40 cycles of 95° C. for 15 s and 60° C. for 1 min. GAPDH was used as a housekeeping gene for normalization. All experiments were repeated three times. The relative change in gene expression was analyzed with the 2^−ΔΔCT method. […]

[3] = system: allogeneic CD8+ T-cells; assay: Allogeneic CD8+ T-cell extravasation/infiltration across brain microvessels in GBM-on-a-Chip; details: BLZ945 0.1 μg/ml, nivolumab 1 μg/ml, mono or dual, every 24 hr for 3 days, PN, CL, MES GBM
Protocol: (§1) Patient-derived GBM cells were firstly dissociated with Accutase (Innovative Cell Technologies), and then labeled with CellTracker Red (5 μM, C34552, Thermo Fisher-Scientific) as per the manufacturer's instructions. TAMs and GBM cells were then mixed with a number ratio of 1:2 at a cell density of 1×10^8 cells/mL in the brain tissue-mimicking hydrogel. The final cell numbers of GBM and TAMs were about 1×10^5 cells per chip. […] Hydrogel solution was then quickly flushed into the hydrogel loading channel, and then incubated in an incubator at 37° C. and 5% CO2 for 30 min for complete gelation. After incubation, the media infusion channel and the vascular-seeding channel was flushed with fresh cell culture media for 2 hr. HBMVECs labeled with DiD (5 μM, V22887, Thermo Fisher-Scientific) were seeded into the vascular-seeding channel at a density of 5×10^6 cells/mL, and incubated at 37° C. and 5% CO2 overnight with fresh cell culture media. To form the vascular lumens, the microfluidic chip was flipped every 15 mins for 2 hr to let HBMVECs to uniformly attach to the vascular-seeding channel. After 24 hr′ incubation, IL-2 activated allogeneic CD8+ T-cells were firstly labeled with CellTracker Green (5 μM, C2925, Thermo Fisher-Scientific) and loaded into the vascular channel at a total cell number of 1×10^6 cells per chip. After culture in the incubator for 1-3 days, live cell images of different cell compartments were captured by an inverted fluorescent microscope (Zeiss Axio Observer.Z1).
Infiltrated CD8+ T-cells were defined as the CD8+ T-cells migrating out of vascular lumens. To quantify the migration behaviors of those CellTracker Green-labeled allogeneic CD8+ T-cells, time-lapsed image stacks were acquired every minute for 2 hr and at least three positions in each microfluidic chip. The cell centroids at different time points of the same cell were then used to calculate the cell migration speed and linked up to represent the migration trajectories by using ImageJ (NIH). The mean migration speeds were then averaged for all infiltrated cells. […]

[4] = system: allogeneic CD8+ T-cells; assay: CD8+ T-cell activation analysis (CD154 expression) in GBM-on-a-Chip; details: BLZ945 0.1 μg/ml, nivolumab 1 μg/ml, mono or dual, 3 days
Protocol: To characterize the expression of surface marks on GBM cell, CD8+ T-cell and TAM, cells were firstly recovered with Corning Cell Recovery Solution (Corning, N.Y., USA) from the brain tissue-mimicking hydrogel. Briefly, cell culture medium was aspirated, and the microfluidics chip was rinsed with cold 1× PBS twice, 10 min per round. PDMS slabs were detached from the cover glass in the microfluidics chip, followed by incubation with Corning Cell Recovery Solution on ice for 30 min. With gently pipetting the channel containing cells, the cell suspension was centrifuged, washed with cold 1 x PBS twice and then resuspended in 5% BSA blocking buffer. All cell samples were fixed in 4% paraformaldehyde (PFA) (Sigma-Aldrich) for 10 min at room temperature. […] To quantify PD-1 expression on CD8+ T-cell, cells were first incubated with PD-1 primary antibody (367402, Biolegend) for 1 hr, and then visualized with Alexa Fluor 488 conjugated goat anti-mouse IgG secondary antibodies (Invitrogen, 5 μg/mL). […] PD-1 and CD154 expressions on CD8+ T-cell, PD-L1 and CD163 expressions on macrophage were quantified based on the mean florescent intensity of cell staining using ImageJ (NIH). Alternatively, ratios of CD154+ or CD163+-cells were calculated relative to CD8+ cells or CD68+ cells, respectively. […]

[5] = system: patient-derived GBM cells; assay: Quantification of GBM cell apoptosis (caspase-3/7 activation) in GBM-on-a-Chip; details: BLZ945 0.1 μg/ml, nivolumab 1 μg/ml, mono or dual; for GBM cell apoptosis with presence of microglia versus macrophage only system: HMC3 microglia present, PN, CL, MES GBM
Protocol: as §1
To examine the apoptosis of GBM cells in the microfluidic model, CellEvent Caspase-3/7 Green Detection Reagent (R37111, Thermo Fisher-Scientific) and Hoechst 33342 (5 μg/mL; H3570, Thermo Fisher-Scientific) were used to distinguish the apoptotic cells that with activated caspase-3/7 with bright green nuclei. […] The ratio of apoptotic GBM cells were calculated as the number of cells with green nuclei to the total number of GBM cells that were stained with CellTracker Red (5 μM, C34552, Thermo Fisher-Scientific). […]

Compound | M2-like marker CD163 expression on TAM / macrophage polarization toward M2 phenotype ([1]; BLZ945 0.1 μg/ml every 24 hr for 3 days, PN (GBML20), CL (GBML08), MES (GBML91) GBM subtypes) | CD163 expression in TAM by qPCR ([1]; BLZ945 0.1 μg/ml, qPCR) | PD-L1 expression in TAM and GBM cells ([2]; BLZ945 0.1 μg/ml alone, qPCR) | mRNA expression of PD-L1 in GBM cell ([2]; BLZ945 0.1 μg/ml, GBM cells co-cultured with TAM) | Allogeneic CD8+ T-cell extravasation / infiltrated CD8+ T-cells [3] | Allogeneic CD8+ T-cell extravasation / infiltrated CD8+ T-cells ([3]; listed as CSF-1R inhibitor) | CD8+ T-cell activation (CD154 expression, CD154+CD8+ T-cells) [4] | GBM cell apoptosis (caspase-3/7 activation) ([5]; 3 days, macrophage-only system) | GBM cell apoptosis with presence of microglia versus macrophage only system [5]
CNC(=O)c1cc(Oc2ccc3nc(N[C@@H]4CCCC[C@H]4O)sc3c2)ccn1 [BLZ945] | suppressed the polarization of macrophages toward an immunosuppressive M2 phenotype in all three GBM subtypes with more significant CD163 marker suppression in the CL and MES GBM subtypes relative to the PN GBM; also recorded: limited expression of CD163 in all GBM subtypes | inhibition of CD163 expression in TAM | no significant change in PD-L1 expression for both TAM and GBM cells | did not change the PD-L1 expression in GBM cells | can significantly enhance allogeneic CD8+ T-cell extravasation across brain microvessels | increased allogeneic CD8+ T-cell infiltration in the tumor | did not significantly reverse the immunosuppression onto the cytotoxic CD8+ T-cell | limited effect on tumor apoptosis | no significant difference with the GBM and macrophage only condition
nivolumab: human IgG4 anti-PD-1 monoclonal antibody; PD-1 blockade | – | – | – | – | did not increase the extravasation of allogeneic CD8+ T-cell | – | did enhance CD8+T-cell activation in the PN and MES GBMs | – | no significant difference with the GBM and macrophage only condition
